Data published in PMC4747952, “Development of TASP0410457 (TASP457), a novel dihydroquinolinone derivative as a PET radioligand for central histamine H3 receptors” (EJNMMI Research, 2016).

Tests used:
[1] = target: T1, rat H3R (Rattus norvegicus, UniProt Q9QYN8); assay: In vitro binding to H3Rs, rat cerebral cortex membranes, [^3H]N-α-methylhistamine; settings: 1 nM [^3H]N-α-methylhistamine, geometric mean, n = 3, read-out: Affinity for H3Rs Rat, IC50
T1 construct: Rat cerebral cortex and monkey frontal cortex were dissected; from tissue; host or cells: rat cerebral cortex membranes
Protocol: Rat cerebral cortex and monkey frontal cortex were dissected, homogenized with 50 mM Tris buffer (pH 7.4) containing 5 mM EDTA and Protease Inhibitor Cocktail Tablets (Roche Diagnostics, Indianapolis, IN) and centrifuged at 48,000×g for 15 min at 4 °C. The pellets were then suspended in binding buffer (50 mM Tris containing 5 mM EDTA, pH 7.4) and stored at −80 °C as membrane preparations.
The membrane preparations were thawed and incubated in the binding buffer containing 0.1 % bovine serum albumin, 1 nM [^3H]N-α-methylhistamine (PerkinElmer, Waltham, MA) with various concentrations of a dihydroquinolinone derivative (i.e., test compound) at 25 °C for 1 h. The reaction was terminated by rapid filtration through 96-well GF/C filter plates (PerkinElmer) presoaked with 0.5 % polyethyleneimine (Wako, Osaka, Japan). After washes with ice-cold binding buffer, the plates were dried and filled with Microscint-o (PerkinElmer). The radioactivity retained on the filters was counted using a TopCount NXT (PerkinElmer). Total and nonspecific radioligand binding was determined by reaction without and with 10 μM thioperamide and clobenpropit, respectively. The specific radioligand binding was then calculated by subtracting the nonspecific binding from the total binding. The IC50 value for inhibition of the radioligand binding by the test compound was determined using a nonlinear fit of the concentration-response curve for each test compound using SAS 9.2 (SAS Institute Inc., Cary, NC). Data were expressed as the geometric means of IC50 values from three independent experiments run in duplicate.

[2] = Ex vivo pharmacokinetic assessment in the rat brain using LC-MS/MS; settings: 10 μg/kg intravenous, n = 3
Protocol: The rats were decapitated at 5, 15, 30, 60, and 120 min after intravenous administration of TASP0390136, TASP0390174, TASP0410426, TASP0410427, TASP0410457, or TASP0434988 at a dose of 10 μg/kg. The cerebellum and forebrain, including the medial prefrontal and cingulate cortices and anterior striatum, were dissected and homogenized with four volumes of distilled water. The homogenates were protein-precipitated with methanol/acetonitrile (1:9) and were centrifuged at 3974×g for 10 min at 4 °C. The resultant supernatants were injected into an HPLC (Shimadzu-20AD, Shimadzu, Kyoto, Japan) and a tandem mass spectrometer (API4000, AB SCIEX, Framingham, MA) using a Shim-pak XR-ODS column (3.0 × 30 mm, Shimadzu) at 50 °C. TASP0410457 was eluted with a mobile phase consisting of 10 mM of ammonium acetate/acetonitrile with a linear gradient at a flow rate of 1.3 mL/min, and ammonium formate instead of ammonium acetate was used for eluting the other five compounds. […] The eluted TASP0390136, TASP0390174, TASP0410426, TASP0410427, TASP0410457, and TASP0434988 were ionized using an electrospray interface and were detected using reaction monitoring of the transitions of m/z 395 to 91, 395 to 98, 413 to 98, 425 to 98, 408 to 138, and 407 to 138, respectively. A dihydroquinolinone compound (6-[(1-cyclobutylpiperidin-4-yl)oxy]-1-(3,5-difluorophenyl)-3,4-dihydroquinolin-2(1H)-one) was used as an internal standard for all assays. The lower qualification limit for TASP0410457 was 0.05 ng/g tissue, and the limit for the other five compounds was 0.15 ng/g tissue. Data were expressed as standardized uptake values (SUVs) calculated as follows: SUV=tissueconcentrationg/g×bodyweightg/injecteddoseg

[3] = target: T2, H3R (Rattus norvegicus, UniProt Q9QYN8); assay: PET imaging of rat brains; type: in vivo; settings: for cerebellar SUV at 15 min after radioligand injection: mean ± S.D.
T2 construct: from tissue; host or cells: brain of living Sprague-Dawley rats
Protocol: Six-week-old male Sprague-Dawley rats were purchased from Japan SLC (Shizuoka, Japan). PET scans were performed using a microPET Focus 220 small-animal scanner (Siemens Medical Solutions USA, Knoxville, TN). The rats were anesthetized with 1.5–2 % isoflurane during the imaging session, while their heart rate and blood oxygen saturation were monitored by pulse oximeter (CANL-425SVA; Med Associates, St. Albans, VT). Body temperature was kept at 37 °C with a heating pad (BWT-100; Bio Research Center, Aichi, Japan). Following the transmission scans for attenuation correction using a ^68Ge-^68Ga point source, emission scans were performed for 90 min in 3D list-mode with an energy window of 350–750 keV, immediately after the intravenous injection of each radioligand. Mean ± S.D. of the injected radioactivity of [^11C]TASP0410457, [^11C]TASP0434988, and [^11C]TASP0390136 was 119 ± 26 MBq, 132 ± 34 MBq, and 124 ± 17 MBq, respectively (n = 3–5). Mean ± S.D. of the mass doses of [^11C]TASP0410457, [^11C]TASP0434988, and [^11C]TASP0390136 was 2.4 ± 1.2 μg/kg, 1.9 ± 0.4 μg/kg, and 4.2 ± 1.6 μg/kg, respectively (n = 3–5).
To assess the specificity of radioligand binding, thioperamide was injected intravenously at a dose of 10 mg/kg at 30 s before the injection of each radioligand.
All list-mode data were sorted into 3D sinograms, which were then Fourier rebinned into 2D sinograms (frames: 1 min × 4, 2 min × 8 and 5 min × 14). Images were reconstructed using 2D-filtered back-projection with a 0.5-mm Hanning filter.
PET image and magnetic resonance imaging (MRI) template were co-registered using PMOD software (PMOD version 3.206; Zurich, Switzerland) according to the following procedure as in our previous works: Outline of the whole brain and positions of eyes in PET images at an early phase of the scan were initially matched to those in MRI images, and then further translations and rotations of PET images were manually performed for fine alignments. Finally, parameters for the co-registration were applied to the entire dynamic PET data. Regions of interest (ROIs) were placed on the striatum, hippocampus, and cerebellum using PMOD software with reference to the MRI template as described elsewhere. The tissue time-activity curves (TACs) for these ROIs were generated by calculating the SUV for each time frame as follows: SUV=radioactivityBq/g×bodyweightg/injectedradiotracerdoseBq
The binding potentials relative to the non-displaceable uptake (BPND) in the striatum and hippocampus were estimated using the simplified reference tissue model (SRTM) with PMOD software using the cerebellum as a reference region, as the rat cerebellum is devoid of H3R [26].

[4] = Radiochemical stability in the final formulation; type: physicochemical; settings: at 40 min after the end of radiosynthesis
Protocol: [^11C]TASP0390136, [^11C]TASP0410457, and [^11C]TASP0434988 were synthesized as shown in Fig. 1a–c (detailed procedures are described in Additional file 1: Supplemental methods) using a homemade automated synthesis system. The radiochemical purities and specific activities of the radioligands, which were analyzed as described in Additional file 1: Supplemental Methods, along with their radiochemical yields and average synthesis times, are summarized in Table 1. Analytical HPLC chromatogram of each radioligand is shown in Additional file 2-4: Figures S1-S3. The radiochemical stabilities of [^11C]TASP0410457 and [^11C]TASP0434988 in the final formulation were >99 % at 1 h and 40 min, respectively, after the end of radiosynthesis.

[5] = system: central H3Rs; assay: Receptor occupancy assay, [^11C]TASP0410457-PET, Lassen's plot; type: in vivo, monkey
Protocol: Occupancy of central H3Rs by ciproxifan, a selective antagonist/inverse agonist, was quantified by [^11C]TASP0410457-PET scans of an anesthetized monkey with arterial blood sampling. […] Receptor occupancy of ciproxifan was determined using Lassen’s plot without any reference regions using the following equation: VT^Baseline−VT^Ciproxifan=OccVT^Baseline−VND where VT^Baseline and VT^Ciproxifan are the regional VT values at baseline and in the ciproxifan challenge, respectively, VND is the non-displaceable distribution volume, and Occ is the occupancy.

[6] = thioperamide predosing 10 mg/kg
[7] = SRTM, cerebellum as reference region

T2 sequence (Q9QYN8 whole entry): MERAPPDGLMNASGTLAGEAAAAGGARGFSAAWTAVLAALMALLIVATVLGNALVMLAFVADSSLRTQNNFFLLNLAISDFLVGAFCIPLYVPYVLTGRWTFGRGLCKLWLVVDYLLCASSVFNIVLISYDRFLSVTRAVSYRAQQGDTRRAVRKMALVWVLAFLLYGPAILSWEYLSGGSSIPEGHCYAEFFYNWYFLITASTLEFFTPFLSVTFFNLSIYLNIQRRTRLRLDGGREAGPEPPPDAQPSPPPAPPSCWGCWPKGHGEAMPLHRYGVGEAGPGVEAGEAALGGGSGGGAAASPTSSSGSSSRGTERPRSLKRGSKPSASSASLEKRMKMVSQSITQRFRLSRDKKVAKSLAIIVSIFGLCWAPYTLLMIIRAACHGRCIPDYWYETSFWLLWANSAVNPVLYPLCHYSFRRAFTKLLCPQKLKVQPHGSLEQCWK
T1 sequence (Q9QYN8 whole entry): as above

SMILES | IC50 [1] [nM] | Mean peak concentration in the forebrain expressed as SUV [2] [SUV] | cerebellar SUV at 15 min after radioligand injection ([3]; baseline) | cerebellar SUV at 15 min after radioligand injection [3, 6] | other results
COc1cccc(N2C(=O)CCc3cc(OCCCN4CCC[C@H]4C)ccc32)c1 [TASP0390174, 1-(3-methoxyphenyl)-6-{3-[(2R)-2-methylpyrrolidin-1-yl]propoxy}-3,4-dihydroquinolin-2(1H)-one] | < 3 | 0.28 |  |  | 
COc1cc(F)cc(N2C(=O)CCc3cc(OCCCN4CCC[C@H]4C)ccc32)c1 [TASP0410426, 1-(3-fluoro-5-methoxyphenyl)-6-{3-[(2R)-2-methylpyrrolidin-1-yl]propoxy}-3,4-dihydroquinolin-2(1H)-one] | < 3 | 0.30 |  |  | 
COc1ccc(N2C(=O)CCc3cc(OCCCN4CCC[C@H]4C)ccc32)c(OC)c1 [TASP0410427, 1-(2,4-dimethoxyphenyl)-6-{3-[(2R)-2-methylpyrrolidin-1-yl]propoxy}-3,4-dihydroquinolin-2(1H)-one] | < 3 | 0.10 |  |  | 
C[C@@H]1CCCN1CCCOc1ccc2c(c1)CCC(=O)N2c1ccc(O[11CH3])cc1 [[^11C]TASP0390136] |  |  | 0.33 ± 0.01 | 0.30 ± 0.03 | 
[11CH3]Oc1ccc(N2C(=O)CCc3cc(OC4CCN(C5CCC5)CC4)ccc32)cc1 [[^11C]TASP0434988] |  |  | 0.64 ± 0.04 | 0.59 ± 0.02 | striatal and hippocampal peak SUVs lower than those for [^11C]TASP0410457 [3]: 20–25%; BPND, Hippocampus [3, 7]: 0.36 ± 0.11; BPND, Striatum [3, 7]: 0.92 ± 0.21; time for specific binding to reach a pseudo-equilibrium state ([3]; target-to-reference ratios, after intravenous injection): ≤ 15 min; radiochemical stability in the final formulation [4]: > 99%
O=C(c1ccc(OCCCc2cnc[nH]2)cc1)C1CC1 [ciproxifan, reference compound] |  |  |  |  | receptor occupancy ([5]; 3 mg/kg intravenously, 10 min before [^11C]TASP0410457, anesthetized monkey, Lassen's plot): ~ 75%; adverse effects preventing completion of PET imaging ([5]; 10 mg/kg, monkey, anesthetized with isoflurane): profound effects on heart rates and body motions
